Data published in patent US10647684B2, “2-aminopyrimidine derivatives for the treatment of viral infections” (Janssen Sciences Ireland Unlimited Company, priority 2013, dated 2020).

How the values were obtained:
Type in all cases: cell-based
human TLR7 = target: T1, human TLR7 (Homo sapiens, UniProt Q9NYK1); assay: TLR7 cellular reporter assay (HEK293, NFκB-luc); details: lowest effective concentration; HEK293 transiently transfected with TLR7 and NFκB-luc; 6 hours incubation
T1 construct: expressed in transfected cells; host or cells: HEK293
T1 sequence (Q9NYK1 27-1049): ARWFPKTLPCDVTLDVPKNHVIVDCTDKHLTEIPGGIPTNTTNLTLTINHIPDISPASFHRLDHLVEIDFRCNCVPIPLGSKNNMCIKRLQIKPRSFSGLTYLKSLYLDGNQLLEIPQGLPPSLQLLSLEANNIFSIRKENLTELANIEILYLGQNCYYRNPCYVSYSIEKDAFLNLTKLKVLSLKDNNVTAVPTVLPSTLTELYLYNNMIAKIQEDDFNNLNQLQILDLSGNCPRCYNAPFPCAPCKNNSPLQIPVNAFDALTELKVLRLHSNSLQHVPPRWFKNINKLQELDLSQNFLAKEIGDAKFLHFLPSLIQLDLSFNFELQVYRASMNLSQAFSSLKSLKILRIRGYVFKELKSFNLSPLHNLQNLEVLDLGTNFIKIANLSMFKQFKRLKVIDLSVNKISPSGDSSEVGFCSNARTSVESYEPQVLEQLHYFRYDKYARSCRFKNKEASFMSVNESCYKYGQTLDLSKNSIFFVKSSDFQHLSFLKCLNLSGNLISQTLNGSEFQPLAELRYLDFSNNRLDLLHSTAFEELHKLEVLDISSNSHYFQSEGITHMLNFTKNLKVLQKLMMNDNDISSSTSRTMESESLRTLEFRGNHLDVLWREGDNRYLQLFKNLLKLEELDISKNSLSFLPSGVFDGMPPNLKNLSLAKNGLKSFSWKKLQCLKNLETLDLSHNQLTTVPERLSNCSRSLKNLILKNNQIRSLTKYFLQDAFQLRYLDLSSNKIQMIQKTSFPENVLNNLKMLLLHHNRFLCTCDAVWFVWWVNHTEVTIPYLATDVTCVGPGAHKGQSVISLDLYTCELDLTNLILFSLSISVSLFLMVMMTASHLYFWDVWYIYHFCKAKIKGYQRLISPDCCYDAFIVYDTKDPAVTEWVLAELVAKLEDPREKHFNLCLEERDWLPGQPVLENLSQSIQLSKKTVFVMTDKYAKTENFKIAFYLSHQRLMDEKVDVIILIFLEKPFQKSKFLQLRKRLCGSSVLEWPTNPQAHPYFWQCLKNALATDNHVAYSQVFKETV
Description: (§1) The ability of compounds to activate human TLR7 and/or TLR8 was assessed in a cellular reporter assay using HEK293 cells transiently transfected with a TLR7 or TLR8 expression vector and NFκB-luc reporter construct.
(§2) Briefly, HEK293 cells were grown in culture medium (DMEM supplemented with 10% FCS and 2 mM Glutamine). For transfection of cells in 15 cm dishes, cells were detached with Trypsin-EDTA, transfected with a mix of CMV-TLR7 or TLR8 plasmid (1700 ng), NFκB-luc plasmid (850 ng) and a transfection reagent and incubated for 48 h at 37° C. in a humidified 5% CO2 atmosphere. Transfected cells were then washed in PBS, detached with Trypsin-EDTA and resuspended in medium to a density of 1.25×10^5 cells/mL. Forty microliters of cells were then dispensed into each well in 384-well plates, where 200 nL of compound in 100% DMSO was already present. Following 6 hours incubation at 37° C., 5% CO2, the luciferase activity was determined by adding 15 μL of Steady Lite Plus substrate (Perkin Elmer) to each well and readout performed on a ViewLux ultraHTS microplate imager (Perkin Elmer). Dose response curves were generated from measurements performed in quadruplicates. Lowest effective concentrations (LEC) values, defined as the concentration that induces an effect which is at least two fold above the standard deviation of the assay, were determined for each compound.

human TLR8 = target: T2, human TLR8 (Homo sapiens, UniProt Q9NR97); assay: TLR8 cellular reporter assay (HEK293, NFκB-luc); details: lowest effective concentration; HEK293 transiently transfected with TLR8 and NFκB-luc; 6 hours incubation
T2 construct: expressed in transfected cells; host or cells: HEK293
T2 sequence (Q9NR97 27-1041): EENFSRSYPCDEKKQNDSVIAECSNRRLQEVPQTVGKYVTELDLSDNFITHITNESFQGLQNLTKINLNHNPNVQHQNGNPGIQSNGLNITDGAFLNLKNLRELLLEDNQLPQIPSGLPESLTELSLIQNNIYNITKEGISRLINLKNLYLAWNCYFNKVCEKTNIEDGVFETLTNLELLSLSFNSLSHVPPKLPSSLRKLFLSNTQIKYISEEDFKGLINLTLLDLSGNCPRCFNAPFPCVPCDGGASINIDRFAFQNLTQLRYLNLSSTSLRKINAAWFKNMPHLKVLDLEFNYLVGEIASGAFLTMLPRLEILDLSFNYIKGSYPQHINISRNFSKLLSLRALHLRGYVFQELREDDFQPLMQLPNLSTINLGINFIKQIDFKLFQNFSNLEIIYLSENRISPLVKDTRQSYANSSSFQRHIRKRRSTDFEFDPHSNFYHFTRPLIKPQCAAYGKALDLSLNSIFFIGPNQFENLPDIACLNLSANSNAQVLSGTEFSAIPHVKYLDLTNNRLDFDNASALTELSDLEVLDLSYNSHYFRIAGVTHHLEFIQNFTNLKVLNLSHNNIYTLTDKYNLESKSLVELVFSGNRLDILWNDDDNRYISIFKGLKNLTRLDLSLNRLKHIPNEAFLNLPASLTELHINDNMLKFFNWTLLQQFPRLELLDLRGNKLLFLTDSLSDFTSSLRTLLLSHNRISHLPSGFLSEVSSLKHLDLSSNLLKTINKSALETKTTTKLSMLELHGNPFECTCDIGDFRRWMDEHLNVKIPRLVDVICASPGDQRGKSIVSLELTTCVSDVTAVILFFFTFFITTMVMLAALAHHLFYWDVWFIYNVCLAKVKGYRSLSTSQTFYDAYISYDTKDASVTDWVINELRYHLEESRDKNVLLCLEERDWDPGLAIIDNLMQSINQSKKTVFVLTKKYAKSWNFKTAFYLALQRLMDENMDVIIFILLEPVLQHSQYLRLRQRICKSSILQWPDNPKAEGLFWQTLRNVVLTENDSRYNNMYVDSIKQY
Description: as §1, §2

[1] = system: interferon-stimulated responsive elements (ISRE); assay: Activation of ISRE promoter elements by conditioned media from PBMC (HEK-ISREluc); details: compound concentration applied to PBMCs overnight; supernatant on HEK-ISREluc cells 24 hours
Description: The potential of compounds to induce IFN-I was also evaluated by measuring the activation of interferon-stimulated responsive elements (ISRE) by conditioned media from PBMC. The ISRE element of sequence GAAACTGAAACT (SEQ ID NO: 1) is highly responsive to the STAT1-STAT2-IRF9 transcription factor, activated upon binding of IFN-I to their receptor IFNAR (Clontech, PT3372-5W). The plasmid pISRE-Luc from Clontech (ref. 631913) contains 5 copies of this ISRE element, followed by the firefly luciferase ORF. A HEK293 cell line stably transfected with pISRE-Luc (HEK-ISREluc) was established to profile the conditioned PBMC cell culture media.
Briefly, PBMCs were prepared from buffy coats of at least two donors using a standard Ficoll centrifugation protocol. Isolated PBMCs were resuspended in RPMI medium supplemented with 10% human AB serum and 2×10^5 cells/well were dispensed into 384-well plates containing compounds (70 μL total volume). After overnight incubation, 10 μL of supernatant was transferred to 384-well plates containing 5×10^3 HEK-ISREluc cells/well in 30 μL (plated the day before). Following 24 hours of incubation, activation of the ISRE elements was measured by assaying luciferase activity using 40 μL/well Steady Lite Plus substrate (Perkin Elmer) and measured with ViewLux ultraHTS microplate imager (Perkin Elmer). […]

Row | Structure (SMILES) | Human TLR 7 (LEC) (human TLR7) | Human TLR 8 (LEC) (human TLR8) | HEK-ISRE luc (LEC) [1]
1 | CCCC[C@@H](CCS(C)(=O)=O)Nc1nc(N)ncc1OC [Compound 1] | 2.0 µM | 1.7 µM | 0.65 µM
2 | CCCC[C@@H](CC[S+](C)[O-])Nc1nc(N)ncc1OC (some centres unmarked) [Compound 2] | 1.4 µM | 9.2 µM | 4.8 µM
3 | CCCC[C@@H](CCSC)Nc1nc(N)ncc1OC [E] | 3.9 µM | 10 µM | –
